Experimental data as given in patent US10047050B2, “3,4-di-substituted pyridine compound, methods of using and compositions comprising the same” (ARDEA BIOSCIENCES, INC., priority 2011, dated 2018).
“And” between values parts separate entries of the source, which are not always exact repeats. Identical values can stand only once.

Test system: serum uric acid
Test: Single-dose Phase I clinical trial, serum uric acid (sUA) 0-72 hours post-dose
Assay type: in vivo, human
Settings: for Absolute sUA concentration, Mean (3-8) / % sUA reduction (from baseline), Mean (3-8) / % sUA change (from baseline), Mean (3-8): mean of subjects 3-8; for % sUA reduction (from baseline) / % sUA change (from baseline): individual subjects 3-8
Method: A Phase 1, Randomized, Double-Blind, Placebo-Controlled Study to Evaluate Safety, Tolerability, Pharmacokinetics and Preliminary Food Effect of Single Doses of a URAT1 Inhibitor, in Healthy Adult Male Volunteers.
To assess safety, tolerability, pharmacokinetics and uricosuric effects after oral administration as single doses of a tablet formulation and the effect of food on bioavailability.
Subjects receive a single, oral dose of active or placebo, at the following doses:
Group 4: 20 mg (fasted) [sentinel dosing];
48 subjects in 6 dose groups, 8 subjects/group, are randomized 3:1 to receive active (6/group) or placebo (2/group). All study procedures are the same regardless of whether subject receives active or placebo. The total duration of subject participation, including screening period, is ˜2-4 weeks, and the total volume of blood collected from each subject during the entire study <500 mL, (less than typically collected during a volunteer blood donation).
5 mg and 20 mg, active and placebo, tablets packaged in 35 count HDPE bottles, stored at controlled room temperature (15-30° C.). Placebo tablets are designed to match the active tablets—identical size, form, taste, and color, and containing the same excipients. 2 mg was dosed as an oral solution.
Subjects dosed on the morning of Day 1 with ˜240 mL of room temp water.
Fasted: subjects are dosed after overnight fast >10 hours and remain fasted until >4 hours post-dose.
Fed: subjects fast overnight for >10 hours, then are dosed 30 mins after completing standard moderate fat breakfast (no high fructose corn syrup).
Serum samples are collected at:
PD samples are frozen (−20° C.) and stored; all samples from a given subject assayed in a single analytical run.

[1] = Group 3, 5 mg single oral dose, fed, 54 h post-dose
[2] = Group 3, 5 mg single oral dose, fed, 60 h post-dose
[3] = Group 3, 5 mg single oral dose, fed, 72 h post-dose
[4] = Group 4, 20 mg single oral dose, fasted, 0 h (baseline)
[5] = Group 4, 20 mg single oral dose, fasted, 6 h post-dose
[6] = Group 4, 20 mg single oral dose, fasted, 12 h post-dose
[7] = Group 4, 20 mg single oral dose, fasted, 24 h post-dose
[8] = Group 4, 20 mg single oral dose, fasted, 30 h post-dose
[9] = Group 4, 20 mg single oral dose, fasted, 36 h post-dose
[10] = Group 4, 20 mg single oral dose, fasted, 48 h post-dose
[11] = Group 4, 20 mg single oral dose, fasted, 54 h post-dose
[12] = Group 4, 20 mg single oral dose, fasted, 60 h post-dose
[13] = Group 4, 20 mg single oral dose, fasted, 72 h post-dose
[14] = Group 5, 20 mg single oral dose, fed, 0 h (baseline)
[15] = Group 5, 20 mg single oral dose, fed, 6 h post-dose
[16] = Group 5, 20 mg single oral dose, fed, 12 h post-dose
[17] = Group 5, 20 mg single oral dose, fed, 24 h post-dose
[18] = Group 5, 20 mg single oral dose, fed, 30 h post-dose
[19] = Group 5, 20 mg single oral dose, fed, 36 h post-dose
[20] = Group 5, 20 mg single oral dose, fed, 48 h post-dose
[21] = Group 5, 20 mg single oral dose, fed, 54 h post-dose
[22] = Group 5, 20 mg single oral dose, fed, 60 h post-dose
[23] = Group 5, 20 mg single oral dose, fed, 72 h post-dose
[24] = Group 6, 40 mg single oral dose, fasted, 0 h (baseline)
[25] = Group 6, 40 mg single oral dose, fasted, 6 h post-dose
[26] = Group 6, 40 mg single oral dose, fasted, 12 h post-dose
[27] = Group 6, 40 mg single oral dose, fasted, 24 h post-dose
[28] = Group 6, 40 mg single oral dose, fasted, 30 h post-dose
[29] = Group 6, 40 mg single oral dose, fasted, 36 h post-dose
[30] = Group 6, 40 mg single oral dose, fasted, 48 h post-dose
[31] = Group 6, 40 mg single oral dose, fasted, 54 h post-dose
[32] = Group 6, 40 mg single oral dose, fasted, 60 h post-dose
[33] = Group 6, 40 mg single oral dose, fasted, 72 h post-dose

## CC(C)(Sc1ccncc1-c1ccc(C#N)c2ccccc12)C(=O)O [2-((3-(4-cyanonaphthalen-1-yl)pyridin-4-yl)thio)-2-methylpropanoic acid]
Group 3, 5 mg single oral dose, fed, 48 h post-dose
  Absolute sUA concentration, Mean (3-8): 4.5 mg/dL
[1]
  % sUA reduction (from baseline): −37.7% and −47.0% and −27.7% and −38.3% and −21.1% and −32.5%
  % sUA reduction (from baseline), Mean (3-8): −34.1%
  Absolute sUA concentration, Mean (3-8): 3.9 mg/dL
[2]
  % sUA reduction (from baseline): −27.5% and −28.8% and −30.8% and −20.0% and −24.6% and −35.0%
  % sUA reduction (from baseline), Mean (3-8): −27.8%
  Absolute sUA concentration, Mean (3-8): 4.3 mg/dL
[3]
  % sUA reduction (from baseline): −14.5% and −18.2% and −20.0% and −11.7% and −15.8% and −25.0%
  % sUA reduction (from baseline), Mean (3-8): −17.5%
  Absolute sUA concentration, Mean (3-8): 4.9 mg/dL
[4]
  % sUA reduction (from baseline), Mean (3-8): 0%
  Absolute sUA concentration, Mean (3-8): 6.8 mg/dL
[5]
  % sUA reduction (from baseline), Mean (3-8): −37.1%
  Absolute sUA concentration, Mean (3-8): 4.3 mg/dL
[6]
  % sUA reduction (from baseline), Mean (3-8): −41.2%
  Absolute sUA concentration, Mean (3-8): 4.0 mg/dL
[7]
  % sUA reduction (from baseline), Mean (3-8): −43.1%
  Absolute sUA concentration, Mean (3-8): 3.8 mg/dL
[8]
  % sUA reduction (from baseline), Mean (3-8): −47.4%
  Absolute sUA concentration, Mean (3-8): 3.6 mg/dL
[9]
  % sUA reduction (from baseline), Mean (3-8): −48.4%
  Absolute sUA concentration, Mean (3-8): 3.5 mg/dL
[10]
  % sUA reduction (from baseline), Mean (3-8): −39.0%
  Absolute sUA concentration, Mean (3-8): 4.1 mg/dL
[11]
  % sUA reduction (from baseline), Mean (3-8): −37.6%
  Absolute sUA concentration, Mean (3-8): 4.2 mg/dL
[12]
  % sUA reduction (from baseline), Mean (3-8): −37.6%
  Absolute sUA concentration, Mean (3-8): 4.2 mg/dL
[13]
  % sUA reduction (from baseline), Mean (3-8): −21.5%
  Absolute sUA concentration, Mean (3-8): 5.3 mg/dL
[14]
  % sUA reduction (from baseline), Mean (3-8): 0%
  Absolute sUA concentration, Mean (3-8): 7.1 mg/dL
[15]
  % sUA reduction (from baseline), Mean (3-8): −44.6%
  Absolute sUA concentration, Mean (3-8): 3.9 mg/dL
[16]
  % sUA reduction (from baseline), Mean (3-8): −56.5%
  Absolute sUA concentration, Mean (3-8): 3.1 mg/dL
[17]
  % sUA reduction (from baseline), Mean (3-8): −46.1%
  Absolute sUA concentration, Mean (3-8): 3.8 mg/dL
[18]
  % sUA reduction (from baseline), Mean (3-8): −48%
  Absolute sUA concentration, Mean (3-8): 3.7 mg/dL
[19]
  % sUA reduction (from baseline), Mean (3-8): −49.9%
  Absolute sUA concentration, Mean (3-8): 3.5 mg/dL
[20]
  % sUA reduction (from baseline), Mean (3-8): −37.6%
  Absolute sUA concentration, Mean (3-8): 4.4 mg/dL
[21]
  % sUA reduction (from baseline), Mean (3-8): −38.8%
  Absolute sUA concentration, Mean (3-8): 4.3 mg/dL
[22]
  % sUA reduction (from baseline), Mean (3-8): −40.3%
  Absolute sUA concentration, Mean (3-8): 4.2 mg/dL
[23]
  % sUA reduction (from baseline), Mean (3-8): −28.6%
  Absolute sUA concentration, Mean (3-8): 5.0 mg/dL
[24]
  % sUA change (from baseline): 0%
  % sUA change (from baseline), Mean (3-8): 0%
  Absolute sUA concentration, Mean (3-8): 6.6 mg/dL
[25]
  % sUA change (from baseline): −23.7% and −51.4% and −38.2% and −54.1% and −49.2% and −42.1%
  % sUA change (from baseline), Mean (3-8): −43.1%
  Absolute sUA concentration, Mean (3-8): 3.8 mg/dL
[26]
  % sUA change (from baseline): −40.8% and −68.9% and −52.9% and −63.9%
  % sUA change (from baseline), Mean (3-8): −59.3%
  Absolute sUA concentration, Mean (3-8): 2.7 mg/dL
[27]
  % sUA change (from baseline), Mean (3-8): −57.6%
  Absolute sUA concentration, Mean (3-8): 2.8 mg/dL
[28]
  % sUA change (from baseline), Mean (3-8): −60.6%
  Absolute sUA concentration, Mean (3-8): 2.6 mg/dL
[29]
  % sUA change (from baseline), Mean (3-8): −61.4%
  Absolute sUA concentration, Mean (3-8): 2.5 mg/dL
[30]
  % sUA change (from baseline): −53.9% and −50.0% and −48.5% and −37.7% and −55.9% and −45.6%
  % sUA change (from baseline), Mean (3-8): −48.6%
  Absolute sUA concentration, Mean (3-8): 3.4 mg/dL
[31]
  % sUA change (from baseline): −56.6% and −47.3% and −50.0% and −39.3% and −54.2% and −40.4%
  % sUA change (from baseline), Mean (3-8): −48.0%
  Absolute sUA concentration, Mean (3-8): 3.4 mg/dL
[32]
  % sUA change (from baseline): −56.6% and −50.0% and −48.5% and −39.3% and −52.5% and −36.8%
  % sUA change (from baseline), Mean (3-8): −47.3%
  Absolute sUA concentration, Mean (3-8): 3.4 mg/dL
[33]
  % sUA change (from baseline): −40.8% and −31.1% and −33.8% and −19.7% and −30.5% and −19.3%
  % sUA change (from baseline), Mean (3-8): −29.2%
  Absolute sUA concentration, Mean (3-8): 4.6 mg/dL
